{"source": "patent US5889008A", "about": "“Substituted 1-indolylpropyl-4-phenethylpiperazadine derivatives” (Merck Sharp & Dohme, Ltd., priority 1995, dated 1999)", "origin": "cited, not measured here", "key": {"[1]": {"system": "human 5-HT1Dα and 5-HT1Dβ receptor subtypes", "conditions": "cf. WO-A-91/17174, Table 1"}, "humans": {"system": "humans", "conditions": "therapeutic doses"}}, "data": [{"molecule": "CNS(=O)(=O)Cc1ccc2[nH]cc(CCN(C)C)c2c1", "note": "[sumatriptan]", "values": [{"measurement": "discrimination between the human 5-HT1Dα and 5-HT1Dβ receptor subtypes", "setting": "[1]", "value": "barely discriminates between the human 5-HT1Dα and 5-HT1Dβ receptor subtypes"}, {"measurement": "adverse cardiovascular events", "setting": "humans", "value": "certain adverse cardiovascular events"}]}]}
